In patent publication US11753374B2, “Compounds for the treatment of acute and chronic kidney disease” (Southern Research Institute, priority 2020, dated 2023) one finds EC50 and Emax data, which are given here for 48 molecules.

SMILES strings stand for the structures.

This experiment relates to heme oxygenase-1 (HO-1). Kind of experiment: High throughput screen: HO-1 promoter/enhancer luciferase reporter (pHOGL3/4.5+220) in stable HEK293 cells. In kind it is cell-based. As to conditions: Homo sapiens; for EC50: Table 1, evaluation of biaryl aminomaleimides, HO-1 induction; for Emax: Table 1, unit inferred, Emax as % of 5 μM hemin. As to the method:
The generation of the pHOGL3/4.5+220 construct is described in Deshane, et al. (2010) “SpI regulates chromatin looping between an intronic enhancer and distal promoter of the human heme oxygenase-1 gene in renal cells” J Biol Chem 285(22): 16476-86. See also FIG. 1.
Briefly, BamHI sites were added to the 4.5-kb PCR product generated by long-range PCR from a bacterial artificial chromosome clone containing portions of chromosome 22 (accession no. Z82244), including the HO-1 gene. This fragment was cloned into the BglII restriction site of the multiple cloning region to make the parental clone (pHOGL3/4.5). The 220-bp intronic enhancer was amplified with SalI sites on either end and cloned into the SalI site of the vector to generate pHOGL3/4.5+220.
In order to generate cells that stably express luciferase expression vectors that lack a mammalian antibiotic selection cassette, HEK293 cells were co-transfected with either pHOGL3/4.5+220 (Deshane et al, 2010) or the Triple Mutant construct (Liby, Hock et al, 2005; Hock et al, 2007) and pcDNA3.1 Zeocin using Lipofectamine 2000. Cells were cultured in Zeocin (400 ug/ml; Invitrogen) for selection. Individual clones were sorted by flow cytometry and plated into a 96-well plate at a density of one cell per well. Clones were maintained and expanded in complete media (DMEM/10% FBS/1× antibiotic-antimycotic) supplemented with 100 ug/ml Zeocin, and incubated at 37° C. in 5% carbon dioxide. Incorporation of the Luciferase expression vectors was validated by assaying for luciferase.
A library of over 150,000 compounds, as well as a library of over 4,000 FDA approved compounds, were used in the HTS assay. […] This led to the identification of approximately 800 compounds that induce HO-1 and have desirable chemical structures. […] The In-Cell Western assay was optimized to screen for endogenous HO-1 in a high throughput platform, and results were validated by Western blot, real-time PCR, and enzyme activity assays. Additional RNA sequencing studies highlighted a role for the transcription factor Nrf2 and other targets in HO-1 induction by several small molecules.

One may read the EC50 as the concentration needed to bring the measured effect to its halfway point. Broadly, the Emax is the maximal effect, on the per cent scale that the assay sets.

In the case of `O=C1C=C(Nc2cc(F)c(O)c(F)c2)C(=O)N1c1ccccc1` [Compound 1, 3-(3,5-difluoro-4-hydroxy-anilino)-1-phenyl-pyrrole-2,5-dione], the half-maximal effective concentration (EC50) was 3.08 µM and the maximal response (Emax) was determined as 90.6%.

`O=C1C=C(Nc2ccc(O)cc2)C(=O)N1c1ccccc1` [Compound 2]: the concentration for a half-maximal effect (EC50) was found to be 1.81 µM and the maximal response (Emax) was 38.1%. As for `O=C1C=C(Nc2ccc(O)c(F)c2)C(=O)N1c1ccccc1` [Compound 3], the EC50 was 1.86 µM and the Emax came to 56.4%. For `O=C1C=C(Nc2ccc(O)cc2F)C(=O)N1c1ccccc1` [Compound 4], in that order: 1.78 µM and 38.9%. On the same counts, the results for `O=C1C=C(Nc2cc(Cl)c(O)c(Cl)c2)C(=O)N1c1ccccc1` [Compound 5] are 31.3 µM and 72.8%. `O=C1C=C(Nc2ccc(O)cc2Cl)C(=O)N1c1ccccc1` [Compound 6]: the EC50 is 1.74 µM and the Emax came to 20.4%. In the case of `O=C1C=C(Nc2ccc(O)c(Cl)c2)C(=O)N1c1ccccc1` [Compound 7], the EC50 was above 50 µM. For the molecule `O=C1C=C(Nc2ccc(O)c(F)c2F)C(=O)N1c1ccccc1` [Compound 8], the concentration giving a half-maximal response (EC50) is 5.49 µM and the Emax was determined as 41.7%. With `O=C1C=C(Nc2ccc(O)c(Cl)c2F)C(=O)N1c1ccccc1` [Compound 9], the EC50 stood at 1.69 µM and the Emax was 33.7%. In the case of `O=C1C=C(Nc2c(F)cc(O)cc2F)C(=O)N1c1ccccc1` [Compound 10], the EC50 is above 50 µM. `O=C1C=C(Nc2ccc(O)c(C(F)(F)F)c2)C(=O)N1c1ccccc1` [Compound 11]: the half-maximal effective concentration (EC50) was above 50 µM. Take `Cc1cc(NC2=CC(=O)N(c3ccccc3)C2=O)cc(C)c1O` [Compound 12]: the EC50 amounted to 7.55 µM and the Emax turned out to be 39.3%.

Regarding `O=C1C=C(Nc2ccc(O)c3ncccc23)C(=O)N1c1ccccc1` [Compound 13], the EC50 was above 50 µM.

Regarding `O=C1C=C(Nc2cc(F)c(O)cc2F)C(=O)N1c1ccccc1` [Compound 14], the concentration giving a half-maximal response (EC50) came out at 2.97 µM and the Emax is 49.1%.

Consider `O=C1C=C(Nc2cc(F)cc(F)c2O)C(=O)N1c1ccccc1` [Compound 15], for which the EC50 was above 50 µM. The same measure, in the same setting: the result for `O=C1C=C(Nc2cc(Cl)c(Cl)cc2O)C(=O)N1c1ccccc1` [Compound 16] reads above 50 µM. As to `O=C1C=C(Nc2ccc(F)c(F)c2O)C(=O)N1c1ccccc1` [Compound 17], the concentration giving a half-maximal response (EC50) came out at 12 µM and the Emax amounted to 54.4%. For `O=C1C=C(Nc2cc(O)c(F)cc2F)C(=O)N1c1ccccc1` [Compound 18], the EC50 was above 50 µM.

Consider `O=C1C=C(Nc2cc(O)c(Cl)cc2F)C(=O)N1c1ccccc1` [Compound 19], for which the 50% effective concentration (EC50) is above 50 µM. On to `O=C1C=C(Nc2cc(O)c(Cl)cc2Cl)C(=O)N1c1ccccc1` [Compound 20], for which the concentration for a half-maximal effect (EC50) was above 50 µM. On to `O=C1C=C(Nc2cc(F)c(F)c(F)c2)C(=O)N1c1ccccc1` [Compound 21], for which the concentration giving a half-maximal response (EC50) is above 50 µM.

Turning to `O=C1C=C(N2CCN(c3ccc(O)cc3)CC2)C(=O)N1c1ccccc1` [Compound 22], the 50% effective concentration (EC50) is above 50 µM. The same measure, in the same setting: then `COc1c(F)cc(NC2=CC(=O)N(c3ccccc3)C2=O)cc1F` [Compound 23], with above 50 µM. For the molecule `O=C(O)c1ccc(NC2=CC(=O)N(c3ccccc3)C2=O)cc1` [Compound 24], the EC50 was above 50 µM.

As for `Nc1ccc(NC2=CC(=O)N(c3ccccc3)C2=O)cc1` [Compound 25], the EC50 was above 50 µM. In the case of `O=C1C=C(Nc2cc(F)c(O)c(F)c2)C(=O)N1c1ccc(F)cc1` [Compound 26], the EC50 came to 4.21 µM and the Emax came to 80.7%. For `O=C1C=C(Nc2cc(F)c(O)c(F)c2)C(=O)N1c1cc(F)cc(F)c1` [Compound 27], in that order: above 50 µM and 72.6%. `O=C1C=C(Nc2cc(F)c(O)c(F)c2)C(=O)N1c1cc(F)c(F)c(F)c1` [Compound 28]: the EC50 was found to be 16.9 µM and the Emax came out at 31.3%. On the same counts, the results for `O=C1C=C(Nc2cc(F)c(O)c(F)c2)C(=O)N1c1ccc(Cl)cc1` [Compound 29] are 3.34 µM and 110%. For the molecule `COc1ccc(N2C(=O)C=C(Nc3cc(F)c(O)c(F)c3)C2=O)cc1` [Compound 30], the EC50 was found to be 2.91 µM and the maximal response (Emax) is 111%. For `O=C1C=C(Nc2cc(F)c(O)c(F)c2)C(=O)N1c1ccc(OC(F)(F)F)cc1` [Compound 31], in that order: 2.31 µM and 64%. As to `O=C1C=C(Nc2cc(F)c(O)c(F)c2)C(=O)N1c1ccc2c(c1)OCO2` [Compound 32], the EC50 came to 12.9 µM and the maximal response (Emax) was 38.1%. Turning to `COc1cc(N2C(=O)C=C(Nc3cc(F)c(O)c(F)c3)C2=O)cc(OC)c1OC` [Compound 33], the EC50 is 2.08 µM and the Emax amounted to 28.4%. With `COc1c(Cl)cccc1N1C(=O)C=C(Nc2cc(F)c(O)c(F)c2)C1=O` [Compound 34], the concentration for a half-maximal effect (EC50) is above 50 µM and the maximum response (Emax) came out at 28.3%. For `Cc1ccc(N2C(=O)C=C(Nc3cc(F)c(O)c(F)c3)C2=O)cc1` [Compound 35], in that order: 2.1 µM and 96.8%. On the same counts, the results for `CC(C)c1ccc(N2C(=O)C=C(Nc3cc(F)c(O)c(F)c3)C2=O)cc1` [Compound 36] are 0.89 µM and 52.5%. Regarding `Cc1ccc(N2C(=O)C=C(Nc3cc(F)c(O)c(F)c3)C2=O)cc1C` [Compound 37], the 50% effective concentration (EC50) is 1.56 µM and the maximum response (Emax) stood at 57.2%. For the molecule `Cc1ccc(N2C(=O)C=C(Nc3cc(F)c(O)c(F)c3)C2=O)c(C)c1` [Compound 38], the EC50 was 2.29 µM and the maximum response (Emax) is 57%. As for `O=C1C=C(Nc2cc(F)c(O)c(F)c2)C(=O)N1c1ccc(C(F)(F)F)cc1` [Compound 39], the EC50 amounted to 4.32 µM and the Emax worked out at 94.9%. Take `N#Cc1ccc(N2C(=O)C=C(Nc3cc(F)c(O)c(F)c3)C2=O)cc1` [Compound 40]: the concentration for a half-maximal effect (EC50) is above 50 µM. Regarding `O=C1C=C(Nc2cc(F)c(O)c(F)c2)C(=O)N1c1ccc(N2CCCCC2)cc1` [Compound 41], the concentration giving a half-maximal response (EC50) was determined as 11.5 µM and the maximal effect (Emax) came out at 70.4%. Regarding `O=C1C=C(Nc2cc(F)c(O)c(F)c2)C(=O)N1c1ccc(-c2ncco2)cc1` [Compound 42], the EC50 is above 50 µM.

For the molecule `O=C1C=C(Nc2cc(F)c(O)c(F)c2)C(=O)N1Cc1ccccc1` [Compound 43], the EC50 was 1.03 µM and the maximal response (Emax) was found to be 67.5%.

Regarding `COC(=O)c1ccc(N2C(=O)C=C(Nc3cc(F)c(O)c(F)c3)C2=O)cc1` [Compound 44], the EC50 turned out to be 19.1 µM and the maximum response (Emax) amounted to 99.6%. For `O=C1C=C(Nc2cc(F)c(O)c(F)c2)C(=O)N1c1cccc2ccccc12` [Compound 45], in that order: 36.1 µM and 141%.

Regarding `O=C1C=C(Nc2cc(F)c(O)c(F)c2)C(=O)N1CCc1ccccc1` [Compound 46], the half-maximal effective concentration (EC50) came out at 0.43 µM and the Emax is 68.5%. On the same counts, the results for `O=C1C=C(Nc2cc(F)c(O)c(F)c2)C(=O)N1c1ccccc1C(F)(F)F` [Compound 47] are 19.7 µM and 91.1%. For `O=C1C=C(Nc2cc(F)c(O)c(F)c2)C(=O)N1c1ccccc1F` [Compound 48], in that order: 13.7 µM and 82.9%.
